According to patent publication US20120172397A1, “HEXAHYDROCYCLOPENTA[f]INDAZOLE 5-YL ETHANOLS AND DERIVATIVES THEREOF AS SELECTIVE GLUCOCORTICOID RECEPTOR MODULATORS” (MERCK SHARP & DOHME CORP., priority 2009, published 2012):

Each compound was assayed against T1, glucocorticoid receptor (GR) (Homo sapiens, UniProt P04150) (assay: GR Ligand Binding Assay (BIND), 3H-dexamethasone displacement in HeLa cell lysate). Settings: 3H-DEX trace, 4° C. overnight.
T1 construct: Preparation of HeLa Cell Lysate; endogenous in cells; host or cells: HeLa (ATCC) cell lysate supernatant
T1 sequence (P04150 1-777): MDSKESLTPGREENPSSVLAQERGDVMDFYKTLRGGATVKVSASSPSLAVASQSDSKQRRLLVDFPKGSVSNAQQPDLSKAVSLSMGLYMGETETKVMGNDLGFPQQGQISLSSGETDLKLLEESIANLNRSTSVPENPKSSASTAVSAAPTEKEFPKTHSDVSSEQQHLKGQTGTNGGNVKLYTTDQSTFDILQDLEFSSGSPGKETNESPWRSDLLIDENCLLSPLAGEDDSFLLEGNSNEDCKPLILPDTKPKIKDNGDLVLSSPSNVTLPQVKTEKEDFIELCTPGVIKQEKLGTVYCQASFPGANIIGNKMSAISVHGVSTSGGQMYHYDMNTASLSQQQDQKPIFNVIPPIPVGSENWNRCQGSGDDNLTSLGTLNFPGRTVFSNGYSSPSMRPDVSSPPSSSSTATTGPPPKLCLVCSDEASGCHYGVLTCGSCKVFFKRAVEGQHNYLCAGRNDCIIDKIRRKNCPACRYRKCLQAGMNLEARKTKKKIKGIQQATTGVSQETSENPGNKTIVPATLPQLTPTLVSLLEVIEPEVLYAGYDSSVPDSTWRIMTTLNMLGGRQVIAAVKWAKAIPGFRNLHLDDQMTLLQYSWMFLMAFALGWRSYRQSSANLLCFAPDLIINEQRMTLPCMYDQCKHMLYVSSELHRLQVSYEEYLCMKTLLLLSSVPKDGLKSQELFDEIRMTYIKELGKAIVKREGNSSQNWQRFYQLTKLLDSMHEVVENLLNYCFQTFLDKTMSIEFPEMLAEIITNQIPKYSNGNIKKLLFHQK
Experimental: Binding Buffer: TEGM (10 mM Tris-HCl, 1 mM EDTA, 10% glycerol, 1 rnM beta-mecaptoethanol, 10 mM Sodium Molybdate, pH 7.2)
50% HAP Slurry: Calbiochem Hydroxylapatite, Fast Flow, in 10 mM Iris, pH 8.0 and 1 mM EDTA.
Wash Buffer: 40 mM Tris, pH7.5, 100 mM KCl, 1 mM EDTA and 1 mM EGTA. 95% EtOH
Dexmethasone-methyl-^3H, (DEX*); (Amersham cat# TRK645)
Dexamethasone(DEX) (Sigma, cat# D1756):
Cells (Hall R. E., et al., European Journal of Cancer, 30A: 484-490 (1994)) HeLa (ATCC) cultured in RPMI 1640 (Gibco 11835-055) containing 20 mM Hepes, 4 mM L-glu, 10 μg/ml of human insulin (Sigma, I-0259), 10% FBS and 20 μg/ml of Gentamicin (Gibco#15710-072) are rinsed twice in PBS. Phenol red-free Trypsin-EDTA is diluted in the same PBS 1:10. The cell layers are rinsed with 1× Trypsin, extra Trypsin is poured out, and the cell layers are incubated at 37° C. for ˜2 min. The flask is tapped and checked for signs of cell detachment. Once the cells begin to slide off the flask, the complete media is added. The cells are counted at this point, then diluted to the appropriate concentration and split into flasks or dishes for further culturing (Usually 1:3 to 1:6 dilution).
When the cells are 70 to 85% confluent, they are detached as described above, and collected by centrifuging at 1000 g for 10 minutes at 4° C. The cell pellet is washed twice with TEGM (10 mM Tris-HCl, 1 mM EDTA, 10% glycerol, 1 mM beta-mercaptoethanol, 10 mM Sodium Molybdate, pH 7.2). After the final wash, the cells are resuspended in TEGM at a concentration of 10^7 cells/mL. The cell suspension is snap frozen in liquid nitrogen or ethanol/dry ice bath and transferred to −80° C. freezer on dry ice. Before setting up the binding assay, the frozen samples are left on ice-water to just thaw (˜1 hr). Then the samples are centrifuged at 12,500 g to 20,000 g for 30 min at 4° C. The supernatant is used to set-up assay right away. If using 50 μL of supernatant, the test compound can be prepared in 50 μL of the TEGM buffer.
1× TEGM buffer is prepared, and the isotope-containing assay mixture is prepared in the following order: EtOH (2% final concentration in reaction), ^3H-DEX (Amersham Biosciences) and 1× TEGM. [e.g. For 100 samples, 200 μL (100×2) of EtOH+4.25 μL of 1:10 ^3H-Dex stock+2300 μL (100×23) 1× TEGM]. The compound is serially diluted, e.g., if starting final conc. is 1 μM, and the compound is in 25 μL of solution, for duplicate samples, 75 μL of 4×1 μM solution is made and 3 μL of 100 μM is added to 72 μL of buffer, and 1:5 serial dilution.
25 μL of ^3H-DEX (6 nM) trace and 25 μL compound solution are first mixed together, followed by addition of 50 μL receptor solution. The reaction is gently mixed, spun briefly at about 200 rpm and incubated at 4° C. overnight. 100 μL of 50% HAP slurry is prepared and added to the incubated reaction which is then vortexed and incubated on ice for 5 to 10 minutes. The reaction mixture is vortexed twice more to resuspend HAP while incubating reaction. The samples in 96-well format are then washed in wash buffer using The FilterMate™ Universal Harvester plate washer (Packard). The washing process transfers HAP pellet containing ligand-bound expressed receptor to Unifilter-96 GF/B filter plate (Packard). The HAP pellet on the filter plate is incubated with 50 μL of MICROSCINT (Packard) scintillint for 30 minutes before being counted on the TopCount microscintillation counter (Packard). IC50s are calculated using DEX as a reference.

Ki	SMILES
151 nM	C[C@]12Cc3cnn(-c4cccnc4)c3C=C1CC[C@@H]2CC(O)c1ccccn1 (single isomer, unassigned) [Example 6b]
2.3 nM	CC(O)(C[C@H]1CCC2=Cc3c(cnn3-c3cccnc3)C[C@@]21C)c1ccccc1 (single isomer, unassigned) [Example 7a]
346 nM	C[C@]12Cc3cnn(-c4cccnc4)c3C=C1CC[C@@H]2CC(O)c1ccccn1 (single isomer, unassigned) [Example 6a]
4.8 nM	CC(O)(C[C@H]1CCC2=Cc3c(cnn3-c3cccnc3)C[C@@]21C)c1ccccc1 (single isomer, unassigned) [Example 7b]

The next lines start with the compound.

SMILES	Ki
COc1ccc(C(O)C[C@H]2CCC3=Cc4c(cnn4-c4cccnc4)C[C@@]32C)cc1 (stereo partly drawn) [Example 5, 1-(4-methoxyphenyl)-2-[(4αR,5R)-4α-methyl-1-(pyridin-3-yl)-1,4,4α,5,6,7-hexahydrocyclopenta[f]indazol-5-yl] ethanol]	0.9 nM
C[C@]12Cc3cnn(-c4cccnc4)c3C=C1CC[C@@H]2CC(O)c1ccccc1 (single isomer, unassigned) [Example 1a]	3.5 nM
COc1cccc(C(O)C[C@H]2CCC3=Cc4c(cnn4-c4cccnc4)C[C@@]32C)c1 (single isomer, unassigned) [Example 4b]	8.4 nM
COc1cccc(C(O)C[C@H]2CCC3=Cc4c(cnn4-c4cccnc4)C[C@@]32C)c1 (single isomer, unassigned) [Example 4a]	3.6 nM
COc1ccccc1C(O)C[C@H]1CCC2=Cc3c(cnn3-c3cccnc3)C[C@@]21C (single isomer, unassigned) [Example 2b]	9 nM
C[C@]12Cc3cnn(-c4cccnc4)c3C=C1CC[C@@H]2CC(O)c1ccccc1 (single isomer, unassigned) [Example 1b]	8.8 nM
COc1ccccc1C(O)C[C@H]1CCC2=Cc3c(cnn3-c3cccnc3)C[C@@]21C (single isomer, unassigned) [Example 2a]	7.3 nM
COc1ccc(C(O)C[C@H]2CCC3=Cc4c(cnn4-c4cccnc4)C[C@@]32C)cn1 (stereo partly drawn) [Example 3, 1-(6-methoxypyridin-3-yl)-2-[(4αR,5R)-4α-methyl-1-(pyridin-3-yl)-1,4,4α,5,6,7-hexahydrocyclopenta[f]indazol-5-yl] ethanol]	8.5 nM
